# Values joined by “and” are separate entries in the source; they are usually repeats but may differ in a detail not shown here. Identical values can stand only once.
# Test system: NT2/D1-R1 control and DNMT3B knockdown cells
# Experiment: Genome-wide expression analysis with PAM clusters, control and DNMT3B knockdown cells (Tables 8-14)
# Conditions: sh-Ctrl + aza; 10 nM decitabine, 3 days
compound,measurement,value
Nc1ncn([C@H]2C[C@H](O)[C@@H](CO)O2)c(=O)n1 [aza],ADAMTSL2 NM_014694 expression Mean,295.667
same,ADM NM_001124 expression Mean,937.101
same,AFMID NM_0010109 expression Mean,303.389
same,AHNAK NM_001620 expression Mean,522.882
same,ANAPC13 NM_015391 expression Mean,549.873
same,ANXA1 NM_000700 expression Mean,1242.05
same,ANXA2 NM_0010028 expression Mean,3575.79
same,AW972815 expression Mean,1125.31
same,BAG3 NM_004281 expression Mean,1275
same,BCL11A NM_022893 expression Mean,399.892
same,BIRC5 NM_001168 expression Mean,873.507
same,BTG2 NM_006763 expression Mean,474.998
same,C9orf6 NM_017832 expression Mean,333.034
same,C10orf2 NM_021830 expression Mean,515.45
same,C10orf58 NM_032333 expression Mean,983.117
same,C16orf93 NM_0010149 expression Mean,392.581
same,CA2 NM_000067 expression Mean,678.212
same,CATSPER2 NM_172097 expression Mean,1806.2
same,CAV1 NM_001753 expression Mean,740.14
same,CCND1 NM_053056 expression Mean,4666.94
same,CDKN1A NM_000389 expression Mean,1938.97
same,CDX1 NM_001804 expression Mean,802.577
same,CEACAM1 NM_0010249 expression Mean,229.793
same,CIRH1A NM_032830 expression Mean,1971.98
same,CLCF1 NM_013246 expression Mean,340.544
same,CLDN10 NM_006984 expression Mean,407.272
same,CNN3 NM_001839 expression Mean,1086.56
same,COL7A1 NM_000094 expression Mean,1054.31
same,COL17A1 NM_000494 expression Mean,521.166
same,CRABP2 NM_001878 expression Mean,2128.79
same,CRIPT NM_014171 expression Mean,613.112
same,CTNNB1 NM_0010982 expression Mean,342.941
same,CUEDC1 NM_017949 expression Mean,525.909
same,CXCL14 NM_004887 expression Mean,366.998
same,CXXC1 NM_014593 expression Mean,1743.77
same,CXorf40A NM_178124 expression Mean,324.823
same,CYR61 NM_001554 expression Mean,634.193
same,DDX51 NM_175066 expression Mean,1671.08
same,DIMT1L NM_014473 expression Mean,893.36
same,DUSP5 NM_004419 expression Mean,1627.42
same,EBI3 NM_005755 expression Mean,650.267
same,EIF2C2 NM_012154 expression Mean,794.459
same,ELF3 NM_004433 expression Mean,306.008
same,ELF4 NM_001421 expression Mean,721.011
same,EMILIN2 NM_032048 expression Mean,650.943
same,EOMES NM_005442 expression Mean,387.137
same,FAM53C NM_016605 expression Mean,2860.96
same,FAM123B NM_152424 expression Mean,1182.82
same,FLJ40504 NM_173624 expression Mean,3003.39
same,FOXO3 NM_201559 expression Mean,639.391
same,GAD1 NM_000817 expression Mean,287.008
same,GAD1 NM_013445 expression Mean,372.485
same,GALNAC4S-6 NM_015892 expression Mean,704.001
same,GEMIN4 NM_015721 expression Mean,1411.28
same,GLIPR2 NM_022343 expression Mean,792.16
same,GNL3L NM_019067 expression Mean,392.011
same,GNL3 NM_206826 expression Mean,1332.63
same,GPATCH4 NM_182679 expression Mean,1117.44
same,GPER NM_0010399 expression Mean,305.922
same,GPR56 NM_201524 expression Mean,378.312
same,GPR56 NM_201525 expression Mean,392.608
same,GPR177 NM_0010022 expression Mean,251.287 and 391.197
same,GPR177 NM_024911 expression Mean,515.533
same,GTF3C6 NM_138408 expression Mean,503.701
same,H2AFY NM_004893 expression Mean,2387.37
same,HARS NM_002109 expression Mean,1887.22
same,HCLS1 NM_005335 expression Mean,319.822
same,HES2 NM_019089 expression Mean,310.888
same,HSPA1A NM_005346 expression Mean,699.362
same,HSPA8 NM_006597 expression Mean,3448.31
same,HSPA8 NM_153201 expression Mean,5257.42
same,HSPH1 NM_006644 expression Mean,565.151
same,ID3 NM_002167 expression Mean,3392.56
same,IER3 NM_003897 expression Mean,835.676
same,IL2RB NM_000878 expression Mean,274.617
same,ITPRIP NM_033397 expression Mean,346.452
same,JTV1 NM_006303 expression Mean,1876.43
same,KAT2A NM_021078 expression Mean,1965.54
same,KIAA0101 NM_014736 expression Mean,468.29
same,KRT8 NM_002273 expression Mean,3394.59
same,LEFTY2 NM_003240 expression Mean,1161.57
